For this experiment, the target named is Falcipain-2 (Plasmodium falciparum, UniProt Q9NAW2). Kind of experiment: Falcipain Enzyme Inhibition Assay. The note with it: pH 5.5; 22 °C. The method, then: The substrate peptide terminating in AMC is processed by falcipain-2 with or without inhibitors, and the accumulation of AMC was monitored in a Labsystems Fluoroskan Ascent spectrofluorometer. IC50 values were determined from plots of percent activity over concentration using GraphPad Prism software.
Chain of Falcipain-2 (Q9NAW2 whole entry): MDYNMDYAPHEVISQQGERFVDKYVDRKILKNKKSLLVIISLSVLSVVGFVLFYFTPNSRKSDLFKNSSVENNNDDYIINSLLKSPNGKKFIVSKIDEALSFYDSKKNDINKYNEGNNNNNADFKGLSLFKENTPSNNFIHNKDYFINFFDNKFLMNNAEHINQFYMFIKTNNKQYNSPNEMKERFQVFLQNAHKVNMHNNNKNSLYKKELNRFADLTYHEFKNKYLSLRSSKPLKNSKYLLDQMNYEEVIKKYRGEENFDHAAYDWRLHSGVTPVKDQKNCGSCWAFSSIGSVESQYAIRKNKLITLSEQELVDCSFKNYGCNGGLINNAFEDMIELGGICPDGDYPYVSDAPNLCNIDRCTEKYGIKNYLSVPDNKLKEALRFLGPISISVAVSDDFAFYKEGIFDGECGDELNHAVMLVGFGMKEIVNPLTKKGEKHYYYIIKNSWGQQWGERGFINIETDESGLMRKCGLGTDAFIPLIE
The compound `O=C(Nc1ccc(Cl)cc1)Nc1ccc(C(=O)/C=C/c2cccnc2)cc1` [3-(4-chlorophenyl)-1-{4-[(2E)-3-(pyridin-3-yl)prop-2-enoyl]phenyl}urea] showed an IC50 of 3.4 µM.
Next, `COc1ccc(NC(=O)Nc2ccc(C(=O)/C=C/c3cccnc3)cc2)cc1` [3-(4-methoxyphenyl)-1-{4-[(2E)-3-(pyridin-3-yl)prop-2-enoyl]phenyl}urea]: 12.5 µM.
In turn, `CC(C)C[C@H](NC(=O)[C@@H]1O[C@H]1C(=O)O)C(=O)NCCCCN=C(N)N` [L-trans-3-Carboxyoxiran-2-carbonyl-L-leucylagmatine] returned an IC50 of 0.058 µM.

Usually IC50 stands for the concentration needed to halve the response being measured. Read a high IC50 as lower potency.

Values taken from BindingDB's records for doi:10.1021/jm058208o (Universidad Central De Venezuela, 2005).
